Seven compounds from patent US7338940B2, “Cancer treatment including glycolytic inhibitors” (priority 2000, dated 2008) can be followed below.

Series [1] relates to human breast carcinoma cells, MCF-7. Kind of series: Colony forming units after co-treatment with Rho 123 and 2-dg. It counts as cell-based. From the text: 218:1117-1119, 1982; Lampidis, T J, Bernal, S D, Summerhayes, I C, and Chen, L B. “Selective toxicity of Rhodamine 123 in carcinoma cells in vitro.” Cancer Res. 43:716-720, 1983; and Bernal, S B, Lampidis, T J, Mclsaac, B, and Chen, L B. “Anticarcinoma activity in vivo of Rhodamine 123, a mitochondrial-specific dye.” Science.

Series [2] deals with osteosarcoma cell line (143B; Wild type). In words: Growth inhibition studies in wild type 143B osteosarcoma cells. Format: cell-based. The settings on record: for IC50: Homo sapiens, read-out: 50% Growth Inhibition Dose; for IC50 / 50% Growth Inhibition Dose: Wild type (143B) cells.
The test system of series [3] is ρ^o cells (cell line 206). Kind of series: Growth inhibition studies in ρ° cells devoid of mitochondrial DNA. The conditions noted are these: for IC50 / 50% Growth Inhibition Dose: ρ° cells; for IC50: read-out: 50% Growth Inhibition Dose; for Ratio of 50% growth inhibition dose, ρ° to wild type (times more resistant): ρ° vs wild type 143B cells; for Relative toxicity/sensitivity in ρ^o vs wt cells (in words): cell model (B). Format: cell-based. The text has this: When an osteosarcoma cell line (143B; Wild type in Table 1 below) was exposed for prolonged periods to ethidium bromide a mutant completely devoid of mitochondrial DNA ρ^o was isolated. […] These processes are necessary for transmembrane proton pumping which creates an electronegative membrane potential (Δψmt) in the matrix side of the inner mitochondrial membrane. Since Rho 123 is a fluorescent dye, which due to its chemical positive charge accumulates in mitochondria, it is commonly used as an indicator of Δψmt.

The test system of a further series is implanted tumors. Kind of series: In vivo treatment of animals with implanted tumors. The conditions noted are these: for Tumor response: animals with implanted tumors. The text has this: This latter result provides evidence that manipulation of Oxphos and glycolysis simultaneously can cure tumors in animals. […] In this regard, several reports have shown that low levels of 2-dg can be safely administered to animals for various reasons including hypersensitization of tumors to irradiation.

Series [4] deals with tumor cells (143B or MCF-7). In words: Hypersensitization of tumor cells to glycolytic inhibitors (cell model (A)). Format: cell-based. The conditions noted are these: intact tumor cells.
Another series deals with 143b cells. Kind of series: Lactate production in living cells (screen for inhibitors of oxidative phosphorylation). It counts as cell-based. The conditions noted are these: for Change in lactate production (in words): increasing doses. From the text: Lactate (more commonly known as lactic acid) is an end product of glycolysis that is activated when a cell cannot use oxygen as its final electron acceptor. This occurs when cells are metabolizing anaerobically. Thus, under these conditions, pyruvate, which is the last end product of glycolysis during aerobic metabolism, is further metabolized to lactate. […] This discovery created a need for a screening method to identify agents which inhibit oxidative phosphorylation and thereby render a cell hypersensitive to glycolytic inhibitors. Consequently, we have developed a rapid and an inexpensive way to detect such agents by measuring increases in the production of lactate in living cells.
Such methodology provides a practical means for testing and or screening extensive libraries of structurally diverse compounds to identify inhibitors of oxidative phosphorylation as well as for obtaining new leads to design novel inhibitors of this fundamental cellular process.

Series [5] deals with wild type 143B (wt) and ρ^o cells (cell line 206). In words: Flow cytometric analysis of Rho 123 accumulation/retention. The conditions noted are these: non-P-gp cell lines (143B wt and ρ^o). It counts as cell-based. The protocol:
Flow cytometric analysis was performed in order to quantitate the differences observed microscopically between wild type 143B (wt) and ρ^o cells (designated as cell line 206) in their accumulation of Rho 123.
To ensure that our accumulation results were not complicated by P-gp-mediated MDR, since Rho 123 is a known substrate for this transporter, both cell types were examined for this gene by RT-PCR and were found not to express it.
For orientation: In flow cytometry, cells or beads pass a laser one at a time.

Converted amounts (≈) assume the structure as drawn.

`O=CC[C@@H](O)[C@H](O)[C@H](O)CO` [2-deoxy-glucose, 2-deoxy-D-glucose]: the “Toxicity at the dose used for co-treatment” value in series [1] (MCF-7, drug alone) is “no toxicity”. In addition, the values for the IC50 in series [2] and in series [3] were 1000 µg/mL (≈ 6090 µM) and 50 µg/mL (≈ 305 µM), respectively. Also, the ID50 in series [2] (wt cells) was found to be 1000 µg/mL (≈ 6090 µM); in series [3] (ρ^o cells) it was 50 µg/mL (≈ 305 µM). In series [3], the “Ratio of 50% growth inhibition dose, ρ° to wild type (times more resistant)” value (from here on “Ratio of 50% growth inhibition dose, ρ°”) was determined as 0.05. The Tumor response result with implanted tumors is “only partial or no responses”. The “Safety of administration to animals” value in the series on implanted tumors (doses effective for anti-tumor activity in combination with an Oxphos inhibitor) is “can be administered safely”.
With `COc1cccc2c1C(=O)c1c(O)c3c(c(O)c1C2=O)C[C@@](O)(C(=O)CO)C[C@@H]3O[C@H]1C[C@H](N)[C@H](O)[C@H](C)O1` [Doxorubicin], the IC50 in series [2] and in series [3] was 0.01 µg/mL (≈ 0.0184 µM) in each case. In series [3], the “Relative toxicity/sensitivity in ρ^o vs wt cells (in words)” value (“Relative toxicity/sensitivity in ρ^o” for short) was “equitoxic”. In addition, the “Ratio of 50% growth inhibition dose, ρ°” value in series [3] worked out at 1. Besides, in series [4], the “Hypersensitization of tumor cells to glycolytic inhibitors” value is “do not hypersensitize”. In addition, the LACTATE in the series on 143b cells (dose 0.005 μg/ml) is 5.1 +/− 0.4 μg/μg protein; in the series with 143b cells (dose 0.01 μg/ml) it was 5.5 +/− 0.7 μg/μg protein. In addition, the “Change in lactate production (in words)” value in the series on 143b cells is on record as “little or no significant changes”.
Regarding `CC(=O)O[C@H]1C(=O)[C@@]2(C)[C@H]([C@H](OC(=O)c3ccccc3)[C@]3(O)C[C@H](OC(=O)[C@H](O)[C@@H](NC(=O)c4ccccc4)c4ccccc4)C(C)=C1C3(C)C)[C@]1(OC(C)=O)CO[C@@H]1C[C@@H]2O` [Paclitaxel], the IC50 in series [2] and in series [3] was 0.05 µg/mL (≈ 0.0586 µM) in each case. In addition, the “Relative toxicity/sensitivity in ρ^o” value in series [3] is reported as “equitoxic”. For the same compound, the “Ratio of 50% growth inhibition dose, ρ°” value in series [3] is reported as 1. Also, the “Hypersensitization of tumor cells to glycolytic inhibitors” value in series [4] is on record as “do not hypersensitize”. Also, the figures for the LACTATE in the series on 143b cells (dose 0.0005 μg/ml), in the series with 143b cells (dose 0.001 μg/ml) and in the series on 143b cells (dose 0.002 μg/ml) were 5.6 +/− 0.7 μg/μg protein, 6.1 +/− 0.7 μg/μg protein and 6.6 +/− 0.3 μg/μg protein, respectively. The “Change in lactate production (in words)” value with 143b cells is listed as “little or no significant changes”.
Turning to `Cc1cc2nc3cc(C)c(N)cc3[n+](-c3ccccc3)c2cc1N.[Cl-]` [Saffranin O], the “50% Growth Inhibition Dose” value in series [2] was 0.35 µg/mL. Also, in series [3], the “50% Growth Inhibition Dose” value is 2 µg/mL and the “Ratio of 50% growth inhibition dose, ρ°” value came out at 6.
As to `CC[C@]1(O)C[C@@H]2CN(CCc3c([nH]c4ccccc34)[C@@](C(=O)OC)(c3cc4c(cc3OC)N(C)[C@H]3[C@@](O)(C(=O)OC)[C@H](OC(C)=O)[C@]5(CC)C=CCN6CC[C@]43[C@@H]65)C2)C1` [Vinblastine], the IC50 in series [2] and in series [3] was 0.00075 µg/mL (≈ 0.000925 µM) throughout. In series [3], the “Relative toxicity/sensitivity in ρ^o” value is reported as “equitoxic”. The “Ratio of 50% growth inhibition dose, ρ°” value in series [3] came out at 1. For the same compound, the “Hypersensitization of tumor cells to glycolytic inhibitors” value in series [4] is “do not hypersensitize”. Moreover, the figures for the LACTATE in the series on 143b cells (dose 0.0005 μg/ml), with 143b cells (dose 0.001 μg/ml) and with 143b cells (dose 0.002 μg/ml) were 5.6 +/− 0.6 μg/μg protein, 6.3 +/− 0.9 μg/μg protein and 5.8 +/− 0.3 μg/μg protein, respectively. In addition, the “Change in lactate production (in words)” value in the series on 143b cells is reported as “little or no significant changes”.
For the compound `COc1ccc(CCN(C)CCCC(C#N)(c2ccc(OC)c(OC)c2)C(C)C)cc1OC` (stereo not drawn) [verapamil], in series [5], the “Effect on retention of Rho 123” value is given as “increases the retention of Rho 123”.
Turning to Rhodamine 123, the “Colony forming units inhibited” value in series [1] (MCF-7, Rho 123 at its 50% dose, 2-dg at a non-toxic dose) came to 50%. Moreover, the “50% Growth Inhibition Dose” value in series [2] amounted to 1.0 µg/mL; in series [3], 50 µg/mL. The “Ratio of 50% growth inhibition dose, ρ°” value in series [3] amounted to 50. In series [4], the “Hypersensitization of tumor cells to glycolytic inhibitors” value is on record as “hypersensitize”. For the same compound, the LACTATE is reported as 9.3 +/− 0.4 μg/μg protein in the series with 143b cells (dose 0.25 μg/ml), 13.2 +/− 0.2 μg/μg protein with 143b cells (dose 0.50 μg/ml) and 14.6 +/− 2.3 μg/μg protein in the series with 143b cells (dose 1.0 μg/ml). Moreover, the “Change in lactate production (in words)” value in the series on 143b cells is given as “lactate is accordingly increased”. Moreover, the Tumor response entry in the series on implanted tumors is listed as “only partial or no responses”.
